Test results reported in patent publication EP3375430A1, “FRAGRANCE COMPOSITIONS” (Takasago International Corporation, priority 2017, dated 2018).

Key:
[1] = Amount of fragrance ingredients retained on paper blotter after evaporation (ethanol extraction, GC-MS); assay type: physicochemical
Procedure, shortened: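 100 µL of fragrance formulation applied to paper blotters kept at 32°C open to air; at each time three blotters extracted 1 h in ethanol with methyl decanoate internal standard and analysed by GC-MS (HP-5MS, 50–280°C). Amounts averaged over triplicates and expressed as percent of time-zero level.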

[2] = Headspace concentration of fragrance ingredients over blotter (thermal desorption GC-MS); assay type: physicochemical; conditions: fragrance TAK; after 1 hour; both control EdT1 and composition C1; Figure 2
Procedure, shortened: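 Fragrance (100µL) applied to a 10 cm perfumers' blotter held on a 32°C hot plate, equilibrated 5 min; headspace drawn through Tenax TA tubes at 17mL/min until 280mL collected, repeated at later sampling times. Tubes thermally desorbed splitless onto HP-5MS column, GC-MS detection, mass range 35 to 350.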

amount of fragrance ingredient retained on blotter (percentage of the initial amount) ([1]; Table 3, fragrance TAK in C1, 15 min, 32°C): 18% | amount of fragrance ingredient retained on blotter (percentage of the initial amount) ([1]; Table 3, fragrance TAK in C1, 60 min, 32°C): 1% | amount of fragrance ingredient retained on blotter (percentage of the initial amount) ([1]; Table 3, fragrance TAK in C1, 120 min, 32°C): 1% | amount of fragrance ingredient retained on blotter (percentage of the initial amount) ([1]; Table 3, fragrance TAK in C1, 240 min, 32°C): 1% | amount of fragrance ingredient retained on blotter (percentage of the initial amount) ([1]; Table 3, fragrance TAK in C1, 480 min, 32°C): <1% | amount of fragrance ingredient retained on blotter (percentage of the initial amount) ([1]; Table 3, fragrance TAK in EdT1, 15 min, 32°C): 1% | amount of fragrance ingredient retained on blotter (percentage of the initial amount) ([1]; Table 3, fragrance TAK in EdT1, 60 min, 32°C): <1% | amount of fragrance ingredient retained on blotter (percentage of the initial amount) ([1]; Table 3, fragrance TAK in EdT1, 120 min, 32°C): <1% | amount of fragrance ingredient retained on blotter (percentage of the initial amount) ([1]; Table 3, fragrance TAK in EdT1, 240 min, 32°C): <1% | amount of fragrance ingredient retained on blotter (percentage of the initial amount) ([1]; Table 3, fragrance TAK in EdT1, 480 min, 32°C): <1% | amount of fragrance ingredient retained on blotter (percentage of the initial amount) ([1]; Table 3, fragrance TAK in EdT1 or C1, T0, set at 100% (normalisation)): 100% | amount of fragrance ingredient retained on blotter (percentage of the initial amount) ([1]; Table 4, fragrance TAK in C2, 15 min, 32°C): 29% | amount of fragrance ingredient retained on blotter (percentage of the initial amount) ([1]; Table 4, fragrance TAK in C2, 480 min, 32°C): <1% | amount of fragrance ingredient retained on blotter (percentage of the initial amount) ([1]; Table 4, fragrance TAK in EdT1, 15 min, 32°C): 2% | amount of fragrance ingredient retained on blotter (percentage of the initial amount) ([1]; Table 4, fragrance TAK in EdT1, 480 min, 32°C): <1% | amount of fragrance ingredient retained on blotter (percentage of the initial amount) ([1]; Table 4, fragrance TAK in EdT1 or C2, T0, set at 100% (normalisation)): 100% | amount of fragrance ingredient retained on blotter (percentage of the initial amount) ([1]; Table 5, fragrance TAK in C3, 15 min, 32°C): 19% | amount of fragrance ingredient retained on blotter (percentage of the initial amount) ([1]; Table 5, fragrance TAK in C3, 60 min, 32°C): <1% | amount of fragrance ingredient retained on blotter (percentage of the initial amount) ([1]; Table 5, fragrance TAK in C3, 120 min, 32°C): <1% | amount of fragrance ingredient retained on blotter (percentage of the initial amount) ([1]; Table 5, fragrance TAK in C3, 240 min, 32°C): <1% | amount of fragrance ingredient retained on blotter (percentage of the initial amount) ([1]; Table 5, fragrance TAK in C3, 480 min, 32°C): <1% | amount of fragrance ingredient retained on blotter (percentage of the initial amount) ([1]; Table 5, fragrance TAK in C3, 1440 min, 32°C): <1% | amount of fragrance ingredient retained on blotter (percentage of the initial amount) ([1]; Table 5, fragrance TAK in EdT1, 15 min, 32°C): 1% | amount of fragrance ingredient retained on blotter (percentage of the initial amount) ([1]; Table 5, fragrance TAK in EdT1, 60 min, 32°C): <1% | amount of fragrance ingredient retained on blotter (percentage of the initial amount) ([1]; Table 5, fragrance TAK in EdT1, 120 min, 32°C): <1% | amount of fragrance ingredient retained on blotter (percentage of the initial amount) ([1]; Table 5, fragrance TAK in EdT1, 240 min, 32°C): <1% | amount of fragrance ingredient retained on blotter (percentage of the initial amount) ([1]; Table 5, fragrance TAK in EdT1, 480 min, 32°C): <1% | amount of fragrance ingredient retained on blotter (percentage of the initial amount) ([1]; Table 5, fragrance TAK in EdT1, 1440 min, 32°C): <1% | amount of fragrance ingredient retained on blotter (percentage of the initial amount) ([1]; Table 5, fragrance TAK in EdT1 or C3, T0, set at 100% (normalisation)): 100% | amount of fragrance ingredient retained on blotter (percentage of the initial amount) ([1]; Table 6, fragrance TAK in C4, 15 min, 32°C): 17% | amount of fragrance ingredient retained on blotter (percentage of the initial amount) ([1]; Table 6, fragrance TAK in C4, 60 min, 32°C): <1% | amount of fragrance ingredient retained on blotter (percentage of the initial amount) ([1]; Table 6, fragrance TAK in C4, 120 min, 32°C): 1% | amount of fragrance ingredient retained on blotter (percentage of the initial amount) ([1]; Table 6, fragrance TAK in C4, 240 min, 32°C): 1% | amount of fragrance ingredient retained on blotter (percentage of the initial amount) ([1]; Table 6, fragrance TAK in C4, 480 min, 32°C): 1% | amount of fragrance ingredient retained on blotter (percentage of the initial amount) ([1]; Table 6, fragrance TAK in EdT1, 15 min, 32°C): 1% | amount of fragrance ingredient retained on blotter (percentage of the initial amount) ([1]; Table 6, fragrance TAK in EdT1, 60 min, 32°C): <1% | amount of fragrance ingredient retained on blotter (percentage of the initial amount) ([1]; Table 6, fragrance TAK in EdT1, 120 min, 32°C): <1% | amount of fragrance ingredient retained on blotter (percentage of the initial amount) ([1]; Table 6, fragrance TAK in EdT1, 240 min, 32°C): <1% | amount of fragrance ingredient retained on blotter (percentage of the initial amount) ([1]; Table 6, fragrance TAK in EdT1, 480 min, 32°C): <1% | amount of fragrance ingredient retained on blotter (percentage of the initial amount) ([1]; Table 6, fragrance TAK in EdT1 or C4, T0, set at 100% (normalisation)): 100% | amount of fragrance ingredient retained on blotter (percentage of the initial amount) ([1]; Table 9, fragrance COM1 in C5, T0 + 15 min): 11.32% | amount of fragrance ingredient retained on blotter (percentage of the initial amount) ([1]; Table 9, fragrance COM1 in C5, T0 + 480 min): <1% | amount of fragrance ingredient retained on blotter (percentage of the initial amount) ([1]; Table 9, fragrance COM1 in C5, T0 +1440 min): <1% | amount of fragrance ingredient retained on blotter (percentage of the initial amount) ([1]; Table 9, fragrance COM1 in C6, T0 + 15 min): 6.6% | amount of fragrance ingredient retained on blotter (percentage of the initial amount) ([1]; Table 9, fragrance COM1 in C6, T0 + 480 min): <1% | amount of fragrance ingredient retained on blotter (percentage of the initial amount) ([1]; Table 9, fragrance COM1 in C6, T0 +1440 min): <1% | amount of fragrance ingredient retained on blotter (percentage of the initial amount) ([1]; Table 9, fragrance COM1 in EdT2, C5 or C6, T0, set at 100% (normalisation)): 100% | amount of fragrance ingredient retained on blotter (percentage of the initial amount) ([1]; Table 9, fragrance COM1 in EdT2, T0 + 15 min): 1.33% | amount of fragrance ingredient retained on blotter (percentage of the initial amount) ([1]; Table 9, fragrance COM1 in EdT2, T0 + 480 min): <1% | amount of fragrance ingredient retained on blotter (percentage of the initial amount) ([1]; Table 9, fragrance COM1 in EdT2, T0 +1440 min): <1% | headspace presence of ingredient [2]: lost
Compound: C=C(C)[C@H]1CC=C(C)CC1 [Limonene]
